# PMC3131558, “Plitidepsin Has a Safe Cardiac Profile: A Comprehensive Analysis” (Marine Drugs, 2011)
# Tests used:
# [1] = system: adult patients with advanced solid tumors or hematological malignancies; test: Cardiac adverse events (CAEs) in phase I/II clinical trials of single-agent plitidepsin; format: in vivo, human; conditions: for CAE group: Miscellaneous Cardiac Adverse Events / CAE group: Myocardial Injury / CAE group: Rhythm Abnormalities / CAE subgroup: Irregular Supraventricular Tachycardia / CAE subgroup: Other Myocardial Injury / CAE subgroup: Other Rhythm Abnormalities / CAE subgroup: Possible Ischemic Related / CAE subgroup: Regular Supraventricular Tachycardia / CAE: Acute myocardial infarction / CAE: Arrhythmia / CAE: Atrial fibrillation / CAE: Atrial flutter / CAE: Atrioventricular block / CAE: Cardiac amyloidosis / CAE: Cardiac failure / CAE: Cardiac troponin I increased / CAE: Cardiomegaly / CAE: Cardiomyopathy / CAE: Change in electrocardiogram / CAE: Chest pain / CAE: Ejection fraction decreased / CAE: Electrocardiogram QT prolonged / CAE: Electrocardiogram ST-T change / CAE: Heart rate irregular / CAE: Hypertension / CAE: Hypotension / CAE: Myocardial ischemia / CAE: Palpitations / CAE: Pericardial effusion / CAE: Sinus tachycardia / CAE: Supraventricular arrhythmia / CAE: Supraventricular tachycardia / CAE: Tachycardia / CAE: Ventricular hypokinesia / Total Adverse Events (cardiac): regardless of relationship
# Source text: Clinical trials included in this cardiac safety analysis were 4 phase I and 14 phase II studies evaluating plitidepsin as single-agent chemotherapy in a total of 578 adult patients (see details in Table 1). All available information on CAEs was retrieved from Pharma Mar’s internal Pharmacovigilance and Clinical Trials databases. The reviewed sources of information were Case Report Forms (CRFs), serious adverse event (SAE) reports, follow-up reports and supplementary reports attached or requested. Median follow-up was 12.0 months (95% CI, 7.6–13.8) for phase I trials and 12.3 months for phase II trials (95% CI, 11.0–13.7). Cutoff for data analysis was 20 November 2008.
# All adverse events (AEs) with preferred terms of the Medical Dictionary for Regulatory Activities (MedDRA) that could be potentially classified as cardiac were evaluated. Additionally, events included in other systems as well in those patients with any vascular risk associated (prior history or within the trial) were also reviewed. Laboratory data were also reviewed in those cases with grade 3/4 creatine phosphokinase increase and/or troponin ([…] or troponin I) elevations. Patients’ prior history and baseline information were searched for any associated vascular risk (diabetes, hypercholesterolemia, hypertension, smoking, prior myocardial infarction or angina, etc.). All events retrieved using the aforementioned criteria were reviewed to identify and exclude from analysis potential CAEs due to obvious cancer-related symptoms (e.g., sinusal tachycardia in anemic patients, chest pain obviously related to tumor involvement of the chest). […] The information obtained was tabulated and a descriptive analysis is reported here.
# [2] = Population PK exposure (Cmax, AUC0-28day) by CAE category; format: in vivo, human; conditions: whole blood, simulated, mean (SD)
# [3] = system: human malignant cell lines; conditions: in vitro and in vivo, at nanomolar concentration ranges; cited from earlier work
# Source text: Aplidin® (plitidepsin) is a cyclic depsipeptide originally isolated from the Mediterranean tunicate Aplidium albicans and currently produced by chemical synthesis. Plitidepsin has been proven to be active against several human malignant cell lines both in vitro and in vivo at nanomolar concentration ranges.
# [4] = Other rhythm abnormalities (n = 10)
substance,measurement,setting,value
plitidepsin,CAE group: Miscellaneous Cardiac Adverse Events,[1]; All studies (n = 578),6 (1.0%) Patients (%)
same,CAE group: Myocardial Injury,[1]; All studies (n = 578),17 (3.0%) Patients (%)
same,CAE group: Rhythm Abnormalities,[1]; All studies (n = 578),31 (5.4%) Patients (%)
same,CAE subgroup: Irregular Supraventricular Tachycardia,[1]; All studies (n = 578),15 (2.6%) Patients (%)
same,CAE subgroup: Other Myocardial Injury,[1]; All studies (n = 578),7 (1.2%) Patients (%)
same,CAE subgroup: Other Rhythm Abnormalities,[1]; All studies (n = 578),13 (2.2%) Patients (%)
same,CAE subgroup: Possible Ischemic Related,[1]; All studies (n = 578),10 (1.7%) Patients (%)
same,CAE subgroup: Regular Supraventricular Tachycardia,[1]; All studies (n = 578),6 (1.0%) Patients (%)
same,CAE: Acute myocardial infarction,[1]; All studies (n = 578),1 (0.2%) Patients (%)
same,CAE: Arrhythmia,[1]; All studies (n = 578),1 (0.2%) Patients (%)
same,CAE: Atrial fibrillation,[1]; All studies (n = 578),11 (1.9%) Patients (%)
same,CAE: Atrial flutter,[1]; All studies (n = 578),5 (0.9%) Patients (%)
same,CAE: Atrioventricular block,[1]; All studies (n = 578),1 (0.2%) Patients (%)
same,CAE: Cardiac amyloidosis,[1]; All studies (n = 578),1 (0.2%) Patients (%)
same,CAE: Cardiac failure,[1]; All studies (n = 578),3 (0.5%) Patients (%)
same,CAE: Cardiac troponin I increased,[1]; All studies (n = 578),1 (0.2%) Patients (%)
same,CAE: Cardiomegaly,[1]; All studies (n = 578),1 (0.2%) Patients (%)
same,CAE: Cardiomyopathy,[1]; All studies (n = 578),2 (0.3%) Patients (%)
same,CAE: Change in electrocardiogram,[1]; All studies (n = 578),1 (0.2%) Patients (%)
same,CAE: Chest pain,[1]; All studies (n = 578),4 (0.7%) Patients (%)
same,CAE: Ejection fraction decreased,[1]; All studies (n = 578),1 (0.2%) Patients (%)
same,CAE: Electrocardiogram QT prolonged,[1]; All studies (n = 578),5 (0.9%) Patients (%)
same,CAE: Electrocardiogram ST-T change,[1]; All studies (n = 578),1 (0.2%) Patients (%)
same,CAE: Heart rate irregular,[1]; All studies (n = 578),1 (0.2%) Patients (%)
same,CAE: Hypertension,[1]; All studies (n = 578),1 (0.2%) Patients (%)
same,CAE: Hypotension,[1]; All studies (n = 578),2 (0.3%) Patients (%)
same,CAE: Myocardial ischemia,[1]; All studies (n = 578),3 (0.5%) Patients (%)
same,CAE: Palpitations,[1]; All studies (n = 578),6 (1.0%) Patients (%)
same,CAE: Pericardial effusion,[1]; All studies (n = 578),3 (0.5%) Patients (%)
same,CAE: Sinus tachycardia,[1]; All studies (n = 578),1 (0.2%) Patients (%)
same,CAE: Supraventricular arrhythmia,[1]; All studies (n = 578),1 (0.2%) Patients (%)
same,CAE: Supraventricular tachycardia,[1]; All studies (n = 578),1 (0.2%) Patients (%)
same,CAE: Tachycardia,[1]; All studies (n = 578),3 (0.5%) Patients (%)
same,CAE: Ventricular hypokinesia,[1]; All studies (n = 578),1 (0.2%) Patients (%)
same,Total Adverse Events (cardiac),[1]; All studies (n = 578),46 (8.0%) Patients (%)
same,CAE group: Miscellaneous Cardiac Adverse Events,[1]; Phase II studies (n = 364),3 (0.8%) Patients (%)
same,CAE group: Myocardial Injury,[1]; Phase II studies (n = 364),14 (3.8%) Patients (%)
same,CAE group: Rhythm Abnormalities,[1]; Phase II studies (n = 364),25 (6.9%) Patients (%)
same,CAE subgroup: Irregular Supraventricular Tachycardia,[1]; Phase II studies (n = 364),14 (3.8%) Patients (%)
same,CAE subgroup: Other Myocardial Injury,[1]; Phase II studies (n = 364),6 (1.6%) Patients (%)
same,CAE subgroup: Other Rhythm Abnormalities,[1]; Phase II studies (n = 364),13 (3.6%) Patients (%)
same,CAE subgroup: Possible Ischemic Related,[1]; Phase II studies (n = 364),8 (2.2%) Patients (%)
same,CAE subgroup: Regular Supraventricular Tachycardia,[1]; Phase II studies (n = 364),1 (0.3%) Patients (%)
same,CAE: Acute myocardial infarction,[1]; Phase II studies (n = 364),1 (0.3%) Patients (%)
same,CAE: Arrhythmia,[1]; Phase II studies (n = 364),1 (0.3%) Patients (%)
same,CAE: Atrial fibrillation,[1]; Phase II studies (n = 364),10 (2.7%) Patients (%)
same,CAE: Atrial flutter,[1]; Phase II studies (n = 364),5 (1.4%) Patients (%)
same,CAE: Atrioventricular block,[1]; Phase II studies (n = 364),1 (0.3%) Patients (%)
same,CAE: Cardiac amyloidosis,[1]; Phase II studies (n = 364),1 (0.3%) Patients (%)
same,CAE: Cardiac failure,[1]; Phase II studies (n = 364),2 (0.5%) Patients (%)
same,CAE: Cardiac troponin I increased,[1]; Phase II studies (n = 364),1 (0.3%) Patients (%)
same,CAE: Cardiomegaly,[1]; Phase II studies (n = 364),1 (0.3%) Patients (%)
same,CAE: Cardiomyopathy,[1]; Phase II studies (n = 364),2 (0.5%) Patients (%)
same,CAE: Change in electrocardiogram,[1]; Phase II studies (n = 364),1 (0.3%) Patients (%)
same,CAE: Chest pain,[1]; Phase II studies (n = 364),2 (0.5%) Patients (%)
same,CAE: Ejection fraction decreased,[1]; Phase II studies (n = 364),1 (0.3%) Patients (%)
same,CAE: Electrocardiogram QT prolonged,[1]; Phase II studies (n = 364),5 (1.4%) Patients (%)
same,CAE: Electrocardiogram ST-T change,[1]; Phase II studies (n = 364),1 (0.3%) Patients (%)
same,CAE: Heart rate irregular,[1]; Phase II studies (n = 364),1 (0.3%) Patients (%)
same,CAE: Hypertension,[1]; Phase II studies (n = 364),0 (0.0%) Patients (%)
same,CAE: Hypotension,[1]; Phase II studies (n = 364),2 (0.5%) Patients (%)
same,CAE: Myocardial ischemia,[1]; Phase II studies (n = 364),3 (0.8%) Patients (%)
same,CAE: Palpitations,[1]; Phase II studies (n = 364),6 (1.6%) Patients (%)
same,CAE: Pericardial effusion,[1]; Phase II studies (n = 364),1 (0.3%) Patients (%)
same,CAE: Sinus tachycardia,[1]; Phase II studies (n = 364),1 (0.3%) Patients (%)
same,CAE: Supraventricular arrhythmia,[1]; Phase II studies (n = 364),0 (0.0%) Patients (%)
same,CAE: Supraventricular tachycardia,[1]; Phase II studies (n = 364),0 (0.0%) Patients (%)
same,CAE: Tachycardia,[1]; Phase II studies (n = 364),0 (0.0%) Patients (%)
same,CAE: Ventricular hypokinesia,[1]; Phase II studies (n = 364),1 (0.3%) Patients (%)
same,Total Adverse Events (cardiac),[1]; Phase II studies (n = 364),37 (10.2%) Patients (%)
same,Plitidepsin-related CAEs: chest pain,[1]; of 15 related CAEs,2 n
same,Plitidepsin-related CAEs: palpitations,[1]; of 15 related CAEs,4 n
same,Patients with a CAE who had a fatal outcome as a direct consequence,"[1]; related, unrelated or unknown CAEs",None
same,"Potentially life-threatening arrhythmias (e.g., ventricular arrhythmias)",[1]; within plitidepsin trials,did not occur
same,AUC0–28day,[2]; Cardiac Adverse Event (n = 36),3236 (2955) h·ng/mL
same,Cmax,[2]; Cardiac Adverse Event (n = 36),61.0 (27.9) ng/mL
same,Cmax,[2]; Irregular supraventricular tachycardia (n = 12),63.7 (34.6) ng/mL
same,AUC0–28day,[2]; Myocardial Injury (n = 11),4077 (3653) h·ng/mL
same,Cmax,[2]; Myocardial Injury (n = 11),69.5 (28.2) ng/mL
same,Cmax,[2]; Other myocardial injury (n = 4),64.7 (30.6) ng/mL
same,AUC0–28day,[2]; [4],2064 (1449) h·ng/mL
same,Cmax,[2]; [4],56.8 (26.2) ng/mL
same,Cmax,[2]; Possible ischemic related (n = 7),72.2 (28.8) ng/mL
same,Cmax,[2]; Regular supraventricular tachycardia (n = 6),57.2 (23.1) ng/mL
same,Cmax,[2]; Rhythm Abnormalities (n = 25),61.5 (29.8) ng/mL
same,Activity against several human malignant cell lines,[3],active
